The nature of data set [1]: In vivo oral pharmacokinetics in mice. The note with it: c57BL/6 male mice; for AUC 0-inf / CL/F / Cmax / Tmax / t1/2: 20 mg/kg gavage, in water; for oral bioavailability: water as vehicle. As to the method:
The main pharmacokinetic parameters of 4-PhDMA, pANDMA, and pANDMA mesylate were evaluated in c57BL/6 male mice, using water as dispersing vehicle.
All experimental procedures involving animals were conducted in accordance with the 3R principle to minimize their pain and discomfort. […] For the PK analysis, C57Bl6 male mice (n = 3 per time point) were gavaged with selected compounds (20 mg/kg), suspended in water, or dissolved in SEDDS formulations, after an overnight fast. […] 8.0 software (GraphPad Software Inc., San Diego, CA, USA), when appropriate. If not otherwise stated, the PK data are expressed as mean ± SD. p < 0.05 was considered statistically significant.
The TMA analogs were extracted and analyzed from mouse plasma as already reported. Briefly, 100 µL of plasma were treated with 300 µL of cold acetonitrile spiked with 80 nM of internal standard (IS, 6,4′-dimethylangelicin), and then the samples were centrifuged for 10 min at 12,000× g (Hettich Mikro 120 Benchtop Centrifuge) and 25 °C. Ten microliters of the supernatant were injected into the UHPLC system.
The analytical column was a Kinetex 2.6 μm C18 Polar, 100 A, 100 × 2.1 mm (Phenomenex, Bologna, Italy), thermostated at 30 °C. The mobile phase components A and B were water and methanol, respectively, both containing 10 mM ammonium formate. The eluent flow rate was 0.25 mL/min. […] MS data were analyzed using the Mass Hunter Qualitative Analysis software (Agilent Technologies, Palo Alto, CA, USA).
Chromatographic peaks of the TMA analog were identified and integrated by considering the Extracted Ion Chromatogram (EIC) of the [M+H]^+ species selected with a window of 5 ppm and normalized by the IS. Quantification of TMA analogs was carried out by external calibration of normalized signals using a seven-point calibration curve obtained by spiking blank plasma with each TMA analog in the range of 20–3000 nM.

For data set [2], the system named is HepG2 cells. The data set can be described thus: Cytotoxicity MTT assay on HepG2 cells. The settings on record: HepG2, 24 h, highest concentration tested (50 μM). (Tetrazolium dyes change colour on reduction, which living cells bring about.)
Experimental: The potential toxicity of TMA analogs on hepatic tissue was assessed by evaluating the viability of HepG2 cells (ATCC, HB-8065) using the MTT assay, as previously reported [22]. Cells were maintained in DMEM complete medium (10% FBS, 1% l-glutamine and 1% PEN-STREP) and seeded in a 96-well plate (5 × 10^4 cells/mL). They were treated for 24 h with TMA analogs (concentration range from 3.125 μM to 50 μM). At the end of the treatment, cells were washed and an MTT solution (0.5 mg/mL in complete medium) was added to each well and incubated for 4 h at 37 °C. The solution was discarded, and the produced blue formazan crystals were dissolved with acidified isopropanol (2% HCl). Absorbance was measured at 570 nm using a multiplate reader (Victor Nivo, Perkin Elmer). The percentage of viable cells was calculated considering untreated cells as control.
The data shown in this figure are the results of three independent experiments, each
performed in quadruplicate.

Broadly, the Cmax is the maximum level reached in the sampled fluid or tissue. What is called Tmax is the time from dosing to the highest level.

For `Cc1cc2c(-c3ccccc3)cc(=O)oc2c2c(C)coc12` [4-PhDMA], in data set [1], the “AUC 0-inf” value amounted to 2.74736 ± 0.51361 µM·h, the CL/F is reported as 0.0014 ± 0.0014 mL/h/g, the maximum concentration (Cmax) was determined as 222 ± 184 nM and the time to peak (Tmax) was determined as 1.25 ± 1.06 h. In data set [1], the t1/2 was determined as 21.13 ± 0.98 h and the oral bioavailability entry was “very low”. Further, the cell viability entry in data set [2] was “greater than 75%”.

On to `Cc1cc(=O)oc2c1cc(-c1ccc(N)cc1)c1occ(C)c12` [pANDMA], for which, in data set [1], the “AUC 0-inf” value came to 2.4054 ± 0.2082 µM·h, the CL/F came out at 0.0083 ± 0.0007 mL/h/g, the Tmax amounted to 0.5 ± 0 h and the t1/2 was found to be 1.91 ± 0.71 h. The oral bioavailability result in data set [1] is on record as “very low”. The compound also showed a peak concentration (Cmax) in data set [1] (20 mg/kg) of 1520 ± 261 nM. Further, in data set [2], the cell viability result is listed as “greater than 75%”.

Source of the values: publication PMC9570109, “Improved Trimethylangelicin Analogs for Cystic Fibrosis: Design, Synthesis and Preliminary Screening” (International Journal of Molecular Sciences, 2022).
